Consider 21 compounds from US11208400B2, “Substituted 6-(1H-pyrazol-1-yl)pyrimidin-4-amine derivatives and uses thereof” (Bayer Aktiengesellschaft, priority 2016, dated 2021).

pIC50: −log10 of the molar value.

The assay has as its target T1, human Npt2a (Homo sapiens, UniProt Q06495).
T1 construct: expressed in transfected cells
T1 sequence (Q06495 1-639): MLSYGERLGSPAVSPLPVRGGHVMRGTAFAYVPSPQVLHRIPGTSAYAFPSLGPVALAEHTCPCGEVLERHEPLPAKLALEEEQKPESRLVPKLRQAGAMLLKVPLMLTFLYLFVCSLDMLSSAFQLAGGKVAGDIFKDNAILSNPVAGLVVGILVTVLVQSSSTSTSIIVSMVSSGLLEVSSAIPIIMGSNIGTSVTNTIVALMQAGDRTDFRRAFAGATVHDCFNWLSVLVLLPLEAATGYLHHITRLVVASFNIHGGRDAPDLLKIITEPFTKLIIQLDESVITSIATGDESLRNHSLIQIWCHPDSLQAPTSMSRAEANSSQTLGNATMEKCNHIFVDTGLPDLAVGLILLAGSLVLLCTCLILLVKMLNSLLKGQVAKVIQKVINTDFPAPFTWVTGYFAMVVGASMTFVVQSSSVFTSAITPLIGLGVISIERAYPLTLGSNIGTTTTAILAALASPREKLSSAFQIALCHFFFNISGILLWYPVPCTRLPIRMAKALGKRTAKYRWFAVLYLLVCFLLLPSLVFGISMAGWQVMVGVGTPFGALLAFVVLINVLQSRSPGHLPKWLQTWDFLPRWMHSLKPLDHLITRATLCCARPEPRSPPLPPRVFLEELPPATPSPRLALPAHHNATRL
The experiment in a line: Npt2a activity cell based assay, membrane potential dye, CHO T-REx hNpt2a cells. As to conditions: doxycycline-induced, depolarization by sodium phosphate influx, average or median values if tested more than once. The method in brief: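 Cells were doxycycline-induced CHO T-REx hNpt2a, dye-loaded and pretreated 5 min at RT with 1 nM–50 μM compound in Na-free pH 7.4 buffer. IC50 was fit to the post/pre-trigger fluorescence ratio.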
One may read the pIC50 as the negative decadic logarithm of the IC50, by convention in mol/L. A higher pIC50 goes with a low IC50. In the case of `Cc1nn(-c2cc(Nc3nn(C)c(-c4ccc(F)cc4)c3C)ncn2)c(C)c1C(F)(F)F` [Example 383, 6-[3,5-dimethyl-4-(trifluoromethyl)-1H-pyrazol-1-yl]-N-[5-(4-fluorophenyl)-1,4-dimethyl-1H-pyrazol-3-yl]pyrimidin-4-amine], the pIC50 was 8.30.

In the case of `Cc1cc(C)n(-c2cc(Nc3nn(C)c(-c4ccc(F)cc4)c3CN3CC(C(F)(F)F)C3)ncn2)n1` [Example 275, 6-(3,5-dimethyl-1H-pyrazol-1-yl)-N-[5-(4-fluorophenyl)-1-methyl-4-{[3-(trifluoromethyl)azetidin-1-yl]methyl}-1H-pyrazol-3-yl]pyrimidin-4-amine], the negative-log IC50 (pIC50) was 5.98.

In turn, `Cc1nn(-c2cc(Nc3c(C)c(-c4ccc(OC(F)(F)F)cc4)nn3CC3CC3)ncn2)c(C(C)(C)O)c1Cl` [Example 290, 2-{4-chloro-1-[6-({1-(cyclopropylmethyl)-4-methyl-3-[4-(trifluoromethoxy)phenyl]-1H-pyrazol-5-yl}amino)pyrimidin-4-yl]-3-methyl-1H-pyrazol-5-yl}propan-2-ol] gave a negative logarithm of the IC50 (pIC50) of 6.77.

As to `CCc1c(Nc2cc(-n3cc4c(n3)CN(C(=O)OC(C)(C)C)CC4)ncn2)n[nH]c1-c1ccc(F)cc1` [Example 26, tert-butyl 2-(6-{[4-ethyl-5-(4-fluorophenyl)-1H-pyrazol-3-yl]amino}pyrimidin-4-yl)-2,4,5,7-tetrahydro-6H-pyrazolo[3,4-c]pyridine-6-carboxylate], the pIC50 is 6.34.

`CCOC(=O)c1c(C)nn(-c2cc(Nc3n[nH]c(-c4ccc(F)cc4)c3CC)ncn2)c1C` [Example 4, ethyl 1-(6-{[4-ethyl-5-(4-fluorophenyl)-1H-pyrazol-3-yl]amino}pyrimidin-4-yl)-3,5-dimethyl-1H-pyrazole-4-carboxylate] gave a pIC50 of 7.55.

As to `Cc1c(Nc2cc(-n3nc(C)c4ccncc43)ncn2)nn(C)c1-c1ccc(C#N)cc1` [Example 228, 4-(1,4-dimethyl-3-{[6-(3-methyl-1H-pyrazolo[3,4-c]pyridin-1-yl)pyrimidin-4-yl]amino}-1H-pyrazol-5-yl)benzonitrile], the pIC50 was 6.68.

On to `Cc1nn(-c2cc(Nc3c(C)c(-c4ccc(F)cc4)nn3CC3CC3)ncn2)c(C)c1[N+](=O)[O-]` [Example 466, N-[1-(cyclopropylmethyl)-3-(4-fluorophenyl)-4-methyl-1H-pyrazol-5-yl]-6-(3,5-dimethyl-4-nitro-1H-pyrazol-1-yl)pyrimidin-4-amine], for which the pIC50 was 7.96.

The compound `Cc1cc(C)n(-c2cc(Nc3c(C)c(-c4ccc(F)cc4)nn3C)ncn2)n1` [Example 71, 6-(3,5-dimethyl-1H-pyrazol-1-yl)-N-[3-(4-fluorophenyl)-1,4-dimethyl-1H-pyrazol-5-yl]pyrimidin-4-amine] gave a pIC50 of 7.30.

For `COc1c(C)nn(-c2cc(Nc3c(C)c(C45C6C7C4C4C5C6C74C#N)nn3CC3CC3)ncn2)c1C` (stereo not drawn) [Example 514, 4-[1-(cyclopropylmethyl)-5-{[6-(4-methoxy-3,5-dimethyl-1H-pyrazol-1-yl)pyrimidin-4-yl]amino}-4-methyl-1H-pyrazol-3-yl]cubane-1-carbonitrile], the pIC50 is 8.05.

With `Cc1nn(-c2cc(Nc3n[nH]c(-c4ccccc4)c3C)ncn2)c(C)c1Cl` [Example 11, 6-(4-chloro-3,5-dimethyl-1H-pyrazol-1-yl)-N-(4-methyl-5-phenyl-1H-pyrazol-3-yl)pyrimidin-4-amine], the pIC50 was 7.30.

`Cc1ccc(-c2nn(CC3CC3)c(Nc3cc(-n4nc(C)cc4C)ncn3)c2C)cn1` [Example 529, N-[1-(cyclopropylmethyl)-4-methyl-3-(6-methylpyridin-3-yl)-1H-pyrazol-5-yl]-6-(3,5-dimethyl-1H-pyrazol-1-yl)pyrimidin-4-amine] showed a negative logarithm of the IC50 (pIC50) of 5.57.

In turn, `CCOC(=O)c1c(C)nn(-c2cc(Nc3nn(CC4CC4)c(-c4ccc(F)cc4)c3CC)ncn2)c1C` [Example 145, ethyl 1-(6-{[1-(cyclopropylmethyl)-4-ethyl-5-(4-fluorophenyl)-1H-pyrazol-3-yl]amino}pyrimidin-4-yl)-3,5-dimethyl-1H-pyrazole-4-carboxylate] showed a pIC50 of 6.77.

`CCOC(=O)c1c(C)nn(-c2cc(Nc3c(C)c(-c4ccc(Cl)cc4)nn3CC3CC3)ncn2)c1C` [Example 314, ethyl 1-(6-{[3-(4-chlorophenyl)-1-(cyclopropylmethyl)-4-methyl-1H-pyrazol-5-yl]amino}pyrimidin-4-yl)-3,5-dimethyl-1H-pyrazole-4-carboxylate] had a negative-log IC50 (pIC50) of 8.05.

Compound `CCc1c(Nc2cc(-n3nc(C)c(Cl)c3C(F)F)ncn2)nn(CC(F)F)c1-c1ccc(F)cc1` [Example 172, 6-[4-chloro-5-(difluoromethyl)-3-methyl-1H-pyrazol-1-yl]-N-[1-(2,2-difluoroethyl)-4-ethyl-5-(4-fluorophenyl)-1H-pyrazol-3-yl]pyrimidin-4-amine] showed a pIC50 of 7.24.

`Cc1nn(-c2cc(Nc3n[nH]c(-c4ccccc4)c3Cl)ncn2)c(C)c1Cl` [Example 54, 6-(4-chloro-3,5-dimethyl-1H-pyrazol-1-yl)-N-(4-chloro-5-phenyl-1H-pyrazol-3-yl)pyrimidin-4-amine]: the pIC50 was 7.04.

As to `Cc1nn(-c2cc(Nc3c(Cl)c(-c4ccc(F)cc4)nn3C)ncn2)c(C)c1C(C)(C)O` [Example 277, 2-[1-(6-{[4-chloro-3-(4-fluorophenyl)-1-methyl-1H-pyrazol-5-yl]amino}pyrimidin-4-yl)-3,5-dimethyl-1H-pyrazol-4-yl]propan-2-ol], the pIC50 is 6.82.

Compound `CCc1c(-c2ccc(F)cc2)nn(C)c1Nc1cc(-n2nc(C)c3ccncc32)ncn1` [Example 206, N-[4-ethyl-3-(4-fluorophenyl)-1-methyl-1H-pyrazol-5-yl]-6-(3-methyl-1H-pyrazolo[3,4-c]pyridin-1-yl)pyrimidin-4-amine] showed a pIC50 of 8.05.

As for `COc1ccc(-c2nn(C)c(Nc3cc(-n4nc(C)c(Cl)c4C)ncn3)c2C)cn1` [Example 505, 6-(4-chloro-3,5-dimethyl-1H-pyrazol-1-yl)-N-[3-(6-methoxypyridin-3-yl)-1,4-dimethyl-1H-pyrazol-5-yl]pyrimidin-4-amine], the negative-log IC50 (pIC50) was 5.92.

Compound `Cc1nn(-c2cc(Nc3c(C)c(-c4ccc(C#N)cc4)nn3C)ncn2)c(C)c1C(C)(C)O` [Example 298, 4-[5-({6-[4-(2-hydroxypropan-2-yl)-3,5-dimethyl-1H-pyrazol-1-yl]pyrimidin-4-yl}amino)-1,4-dimethyl-1H-pyrazol-3-yl]benzonitrile] had a pIC50 of 7.77.

In turn, `CCOC(=O)c1c(C)nn(-c2cc(Nc3nn(C)c(-c4ccc(F)cc4)c3Cl)ncn2)c1C` [Example 356, ethyl 1-(6-{[4-chloro-5-(4-fluorophenyl)-1-methyl-1H-pyrazol-3-yl]amino}pyrimidin-4-yl)-3,5-dimethyl-1H-pyrazole-4-carboxylate] showed a pIC50 of 8.70.

Turning to `CCOC(=O)c1c(C)nn(-c2cc(Nc3n[nH]c(-c4ccc(C#N)cc4)c3C)ncn2)c1C` [Example 136, ethyl 1-(6-{[5-(4-cyanophenyl)-4-methyl-1H-pyrazol-3-yl]amino}pyrimidin-4-yl)-3,5-dimethyl-1H-pyrazole-4-carboxylate], the pIC50 is 6.44.
